Results from ChEMBL document CHEMBL1134397, “Synthesis, structure-activity relationships, and pharmacokinetic profiles of nonpeptidic alpha-keto heterocycles as novel inhibitors of human chymase” (J Med Chem, 2001).
Calls of active or inactive are those of the source. The rule behind the calls is not given here. Where a SMILES comes first, the peptide text is derived from it. The star is where a group is joined. CF3 = FC(F)(F)*

Columns and labels:
Chymase [1] = molecular target: T1, Chymase (Homo sapiens, UniProt P23946); experiment: Inhibitory activity evaluated against chymase from human heart.
T1 sequence (P23946 whole entry): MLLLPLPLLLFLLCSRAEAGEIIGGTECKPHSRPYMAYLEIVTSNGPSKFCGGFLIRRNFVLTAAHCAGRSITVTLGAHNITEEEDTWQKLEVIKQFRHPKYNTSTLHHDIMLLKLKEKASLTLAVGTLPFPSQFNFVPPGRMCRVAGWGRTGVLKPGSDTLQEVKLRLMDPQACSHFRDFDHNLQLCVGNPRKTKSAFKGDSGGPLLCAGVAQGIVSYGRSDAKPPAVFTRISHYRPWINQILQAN

Chymotrypsinogen A = Chymotrypsinogen A (Bos taurus, UniProt P00766); experiment: Inhibitory activity against alpha chymotrypsin from bovine pancreas.
[2] = molecular target: T2, Neutrophil elastase (Homo sapiens) (UniProt P08246); experiment: Inhibitory activity against human leukocyte elastase (10 uM); No inhibition
T2 sequence (whole entry): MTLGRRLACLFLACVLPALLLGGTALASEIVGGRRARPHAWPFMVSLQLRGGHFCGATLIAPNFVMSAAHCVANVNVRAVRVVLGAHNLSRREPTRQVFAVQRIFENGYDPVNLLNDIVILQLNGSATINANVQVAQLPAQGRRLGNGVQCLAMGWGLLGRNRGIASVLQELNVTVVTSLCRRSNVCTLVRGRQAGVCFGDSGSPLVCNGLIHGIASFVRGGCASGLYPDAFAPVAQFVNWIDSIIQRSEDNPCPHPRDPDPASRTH

Chymase [3] = molecular target: T3, Chymase (Rattus norvegicus, UniProt P50339); experiment: Inhibitory activity against rat peritoneal chymase
T3 sequence (P50339 whole entry): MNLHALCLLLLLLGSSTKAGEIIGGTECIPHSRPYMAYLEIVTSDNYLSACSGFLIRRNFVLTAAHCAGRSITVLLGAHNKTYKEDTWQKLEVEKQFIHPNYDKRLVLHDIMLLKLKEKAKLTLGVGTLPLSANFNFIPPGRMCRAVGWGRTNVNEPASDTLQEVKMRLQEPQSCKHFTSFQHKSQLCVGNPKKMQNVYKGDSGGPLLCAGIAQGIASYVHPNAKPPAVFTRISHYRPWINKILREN

Cathepsin G = molecular target: T4, Cathepsin G (Homo sapiens, UniProt P08311); experiment: Inhibitory activity against human cathepsin G
T4 sequence (P08311 whole entry): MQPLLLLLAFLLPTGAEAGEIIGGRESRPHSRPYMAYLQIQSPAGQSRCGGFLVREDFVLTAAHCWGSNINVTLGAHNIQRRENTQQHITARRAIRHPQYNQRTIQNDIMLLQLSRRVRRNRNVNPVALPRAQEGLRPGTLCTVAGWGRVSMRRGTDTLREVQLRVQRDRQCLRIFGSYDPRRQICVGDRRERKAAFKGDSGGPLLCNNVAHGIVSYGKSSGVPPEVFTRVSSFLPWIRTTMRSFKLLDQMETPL

[4] = molecular target: Prothrombin (Homo sapiens) (UniProt P00734); experiment: Inhibitory activity against human plasma thrombin (10 uM); No inhibition; assay type: cell-free
[5] = molecular target: Angiotensin-converting enzyme (Homo sapiens) (UniProt P12821); experiment: Inhibitory activity against human angiotensin I converting enzyme (10 uM); No inhibition
Mast cell protease 9 = molecular target: T5, Mast cell protease 9 (Mus musculus, UniProt O35164); experiment: Inhibitory activity against mouse peritoneal chymase
T5 sequence (O35164 whole entry): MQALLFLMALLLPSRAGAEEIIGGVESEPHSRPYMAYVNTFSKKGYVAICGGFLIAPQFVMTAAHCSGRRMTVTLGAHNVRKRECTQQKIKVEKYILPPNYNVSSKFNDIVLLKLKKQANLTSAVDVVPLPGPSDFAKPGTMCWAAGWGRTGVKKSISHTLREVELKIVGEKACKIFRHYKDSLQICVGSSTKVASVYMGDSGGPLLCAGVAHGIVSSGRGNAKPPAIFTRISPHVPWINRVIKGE

Chymase [6] = molecular target: T1, Chymase
Chymase [7] = molecular target: T1, Chymase; experiment: inhibitory activity was evaluated against chymase from human heart.
[8] = Time to reach Cmax when a dose of 1 mg/kg is administered orally; assay type: ADME, organism-based; set-up: dose 1 mg/kg, route oral; conditions: rat, in vivo, po
[9] = Maximum plasma concentration was measured when a dose of 1 mg/kg is administered orally; assay type: ADME, organism-based; set-up: dose 1 mg/kg, route oral; conditions: rat, po
[10] = Pharmacokinetic parameter AUC was determined when a dose of 1 mg/kg was administered intravenously; assay type: ADME, organism-based; set-up: dose 1 mg/kg, route intravenous; conditions: rat, in vivo, iv
[11] = Pharmacokinetic parameter plasma clearance was determined at when a dose of 1 mg/kg is administered; assay type: ADME, organism-based; set-up: dose 1 mg/kg; conditions: rat
[12] = molecular target: Prothrombin (Homo sapiens) (UniProt P00734); experiment: inhibitory activity against human plasma thrombin (10 uM); No inhibition; assay type: cell-free
[13] = Oral Bioavailability was determined; assay type: ADME, organism-based; conditions: rat, in vivo, read-out: BA
[14] = Pharmacokinetic parameter AUC was determined when a dose of 1 mg/kg was administered orally; assay type: ADME, organism-based; set-up: dose 1 mg/kg, route oral; conditions: rat, in vivo, po
[15] = Half life was evaluated when a dose of 1 mg/kg was administered intravenously to rats; assay type: ADME, organism-based; set-up: dose 1 mg/kg, route intravenous; conditions: rat, in vivo, iv
[16] = Steady state volume distribution was determined; steady state(ss); assay type: ADME, organism-based; conditions: rat, in vivo

Sequence of Angiotensin-converting enzyme (Homo sapiens) (P12821 whole entry): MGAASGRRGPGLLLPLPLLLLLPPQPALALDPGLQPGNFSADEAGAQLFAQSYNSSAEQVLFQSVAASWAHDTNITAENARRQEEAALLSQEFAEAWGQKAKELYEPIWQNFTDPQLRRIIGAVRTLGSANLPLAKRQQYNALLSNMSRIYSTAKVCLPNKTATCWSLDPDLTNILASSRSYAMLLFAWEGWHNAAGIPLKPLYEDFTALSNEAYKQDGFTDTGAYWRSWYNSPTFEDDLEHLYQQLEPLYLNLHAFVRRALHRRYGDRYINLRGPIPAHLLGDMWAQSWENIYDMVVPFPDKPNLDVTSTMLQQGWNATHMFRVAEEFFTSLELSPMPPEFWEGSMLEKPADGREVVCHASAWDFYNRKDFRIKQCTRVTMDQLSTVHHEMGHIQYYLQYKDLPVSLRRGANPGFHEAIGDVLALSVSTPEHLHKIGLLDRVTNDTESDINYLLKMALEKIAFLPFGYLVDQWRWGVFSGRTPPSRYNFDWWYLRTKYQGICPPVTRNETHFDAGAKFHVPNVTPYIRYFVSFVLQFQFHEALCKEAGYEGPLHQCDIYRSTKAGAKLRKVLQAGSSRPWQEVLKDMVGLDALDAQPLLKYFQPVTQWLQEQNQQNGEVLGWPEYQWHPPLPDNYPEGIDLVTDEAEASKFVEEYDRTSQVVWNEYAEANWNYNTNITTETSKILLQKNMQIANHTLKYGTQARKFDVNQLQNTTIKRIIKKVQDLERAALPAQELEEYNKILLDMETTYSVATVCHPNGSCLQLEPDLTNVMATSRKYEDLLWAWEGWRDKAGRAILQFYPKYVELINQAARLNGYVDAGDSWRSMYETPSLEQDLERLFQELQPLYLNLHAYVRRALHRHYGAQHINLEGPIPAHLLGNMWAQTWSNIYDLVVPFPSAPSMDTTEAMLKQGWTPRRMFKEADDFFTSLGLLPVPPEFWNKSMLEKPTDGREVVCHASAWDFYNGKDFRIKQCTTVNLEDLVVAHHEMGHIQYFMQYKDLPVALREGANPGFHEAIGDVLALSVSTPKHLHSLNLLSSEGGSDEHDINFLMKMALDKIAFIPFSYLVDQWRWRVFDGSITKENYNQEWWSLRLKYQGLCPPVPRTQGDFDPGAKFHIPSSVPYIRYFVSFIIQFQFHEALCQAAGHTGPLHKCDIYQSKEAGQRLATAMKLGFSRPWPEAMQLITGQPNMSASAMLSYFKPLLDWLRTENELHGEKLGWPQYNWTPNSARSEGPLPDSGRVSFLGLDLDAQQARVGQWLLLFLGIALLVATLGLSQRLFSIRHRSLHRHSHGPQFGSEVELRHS

| SMILES | Ki (Chymase [1]) [nM] | Ki (Chymotrypsinogen A) [nM] | further results |
| --- | --- | --- | --- |
| COC(=O)c1ccc2oc(C(=O)C(Cc3ccccc3)NC(=O)Cn3c(-c4cccc(Cl)c4)ncc(N)c3=O)nc2c1 (stereo not drawn) | 26.1 | 3820 |  |
| COC(=O)c1ccc2nc(C(=O)C(Cc3ccccc3)NC(=O)Cn3c(-c4ccc(F)cc4)ncc(N)c3=O)oc2c1 (stereo not drawn) |  | 71.3 |  |
| CC(C)[C@H](N)C(=O)N1CCC[C@H]1C(=O)N[C@@H](Cc1ccccc1)C(=O)C(F)(F)F (H-Val-Pro-Phe-CF3) | 82.1 | 4400 |  |
| COC(=O)c1ccc2oc(C(=O)C(Cc3ccccc3)NC(=O)Cn3c(-c4ccc(F)cc4)ncc(N)c3=O)nc2c1 (stereo not drawn) | 22.6 | 52.9 | NA [2]: inactive; Ki (Chymase [3]): 103 nM; Ki (Cathepsin G): 720 nM; NA [4]: inactive; NA [5]: inactive; Ki (Mast cell protease 9): 40.4 nM; Ki (Chymase [6]): 3.68 nM |
| Nc1cnc(-c2ccc(F)cc2)n(CC(=O)NC(Cc2ccccc2)C(=O)c2nc3cc(C(=O)O)ccc3o2)c1=O (stereo not drawn) |  | 133 |  |
| CC(C)C[C@H](NC(=O)[C@@H](NC(=O)N[C@@H](Cc1ccccc1)C(=O)O)C1CCN=C(N)N1)C(=O)N[C@H](C=O)Cc1ccccc1 (stereo partly drawn) [CHYMOSTATIN] |  |  | Ki (Chymase [7]): 13.1 nM |
| COC(=O)c1ccc2oc(C(=O)C(Cc3ccccc3)NC(=O)Cn3c(-c4cccc(F)c4)ncc(N)c3=O)nc2c1 (stereo not drawn) | 14.3 | 1770 |  |
| NC(=O)c1ccc2oc(C(=O)C(Cc3ccccc3)NC(=O)Cn3c(-c4ccc(F)cc4)ncc(N)c3=O)nc2c1 (stereo not drawn) | 94 | 53.4 |  |
| COC(=O)c1ccc2oc(C(=O)C(Cc3ccccc3)NC(=O)Cn3c(-c4cccc(N)c4)ncc(N)c3=O)nc2c1 (stereo not drawn) | 5.6 | 855 |  |
| Nc1cnc(-c2ccc(F)cc2)n(CC(=O)NC(Cc2ccccc2)C(=O)c2nc3cc(F)ccc3o2)c1=O (stereo not drawn) |  | 65.1 |  |
| Nc1ccc2oc(C(=O)C(Cc3ccccc3)NC(=O)Cn3c(-c4ccc(F)cc4)ncc(N)c3=O)nc2c1 (stereo not drawn) |  | 60 |  |
| COC(=O)c1ccc2oc(C(=O)C(Cc3ccccc3)NC(=O)Cn3c(-c4cccc(C)c4)ncc(N)c3=O)nc2c1 (stereo not drawn) | 44.2 | 47.7 |  |
| CCN(CC)C(=O)c1ccc2oc(C(=O)C(Cc3ccccc3)NC(=O)Cn3c(-c4ccc(F)cc4)ncc(N)c3=O)nc2c1 (stereo not drawn) | 59.5 | 23.3 |  |
| COC(=O)c1ccc2oc(C(=O)C(Cc3ccccc3)NC(=O)Cn3c(-c4cccnc4)ncc(N)c3=O)nc2c1 (stereo not drawn) |  | 45.1 | Ki (Chymase [7]): 77.4 nM |
| CCOC(=O)c1ccc2oc(C(=O)C(Cc3ccccc3)NC(=O)Cn3c(-c4ccc(F)cc4)ncc(N)c3=O)nc2c1 (stereo not drawn) | 30 | 477 |  |
| Nc1cnc(-c2ccc(F)cc2)n(CC(=O)NC(Cc2ccccc2)C(=O)c2nc3cc(-c4ccccc4)ccc3o2)c1=O (stereo not drawn) |  |  | Ki (Chymase [7]): 174 nM |
| COC(=O)c1ccc2oc(C(=O)C(Cc3ccccc3)NC(=O)Cn3c(-c4ccncc4)ncc(N)c3=O)nc2c1 (stereo not drawn) | 43.5 | 467 |  |
| Nc1cnc(-c2ccc(F)cc2)n(CC(=O)NC(Cc2ccccc2)C(=O)c2nc3ncccc3o2)c1=O (stereo not drawn) | 60.6 | 60.5 |  |
| CCNC(=O)c1ccc2oc(C(=O)C(Cc3ccccc3)NC(=O)Cn3c(-c4ccc(F)cc4)ncc(N)c3=O)nc2c1 (stereo not drawn) | 68.6 | 32.6 |  |
| COC(=O)c1ccc2oc(C(=O)C(Cc3ccccc3)NC(=O)Cn3c(-c4cccc([N+](=O)[O-])c4)ncc(N)c3=O)nc2c1 (stereo not drawn) |  | 11500 |  |
| Nc1cnc(-c2ccc(F)cc2)n(CC(=O)NC(Cc2ccccc2)C(=O)c2nc3cc(O)ccc3o2)c1=O (stereo not drawn) | 2120 | 2230 |  |
| COC(=O)c1ccc2oc(C(=O)C(Cc3ccccc3)NC(=O)Cn3c(-c4cccc(OC)c4)ncc(N)c3=O)nc2c1 (stereo not drawn) | 4.85 | 943 | NA [2]: inactive; Ki (Chymase [3]): 86.6 nM; Tmax [8]: 6 h; Cmax [9]: 396 ng/mL; AUC [10]: 108000 ng·h/mL; clearance [11]: 0.168 mL/min/kg; NA [12]: inactive; bioavailability [13]: 19.3%; AUC [14]: 20800 ng·h/mL; half-life [15]: 35.7 h; NA [5]: inactive; Ki (Mast cell protease 9): 63.9 nM; Ki (Chymase [6]): 1.12 nM; Vd [16]: 0.469 L/kg |
